For test [1], the system named is HS-PSS. Kind of test: drug sensitivity score (DSS, CellTiter-Glo viability, 72 h) (DSS (dimensionless)); higher = more sensitive; extreme values may be limits of the assay. In outline:
(§1)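 MPNST cell lines and primary human Schwann cells (750–1000 cells per well) went into 384-well plates preprinted with each compound at five concentrations in 10-fold steps. Plates were incubated 72 h at 37 °C, 5% CO2. Viability was read as CellTiter-Glo ATP luminescence, scaled between vehicle and positive-control wells, with duplicates averaged where present. Percent inhibition is at the top concentration; drug sensitivity score and relative IC50 (censored at top concentration) come from four-parameter logistic fits.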

Test [2] concerns HS-Sch-2. The description is as above. In outline:
as §1

Test [3] relates to HSC1 (primary human Schwann cells). The test is described as above. The method in brief:
as §1

For test [4], the system named is HSC2 (primary human Schwann cells). The test is described as above. The method in brief:
as §1

Test [5] concerns S1507-2. Described as above. The method in brief: as §1
For test [6], the system named is S462. The test is described as above. In outline:
as §1

In test [7] the test system is ST8814. The description is as above. In outline:
as §1

The subject of test [8] is STS26T. The description is as above. The method in brief: as §1
The subject of test [9] is YST-1. Described as above. The method in brief: as §1
Test [10] has as its system HS-PSS. Kind of test: drug sensitivity score (DSS, CellTox-Green cytotoxicity, 72 h) (DSS (dimensionless)); higher = more cytotoxic; extreme values may be limits of the assay. The method in brief: (§2)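 MPNST cell lines and primary human Schwann cells were incubated 72 h at 37 °C in 384-well plates holding five 10-fold compound dilutions. CellTox-Green was added before seeding at a final 1:1000 dilution and reported fluorescence from DNA released by disrupted cells. Signals were scaled to vehicle and positive-control wells, and cultures failing plate quality control were dropped. Drug sensitivity score and relative IC50 come from four-parameter logistic fits, with IC50 censored at the top concentration.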

The test system of test [11] is HSC1 (primary human Schwann cells). Described as above. The method in brief: as §2
The subject of test [12] is HSC2 (primary human Schwann cells). The description is as above. The method in brief:
as §2

Test [13] deals with S1507-2. The description is as above. In outline: as §2
The test system of test [14] is ST8814. Described as above. In outline: as §2
Test [15] concerns STS26T. The description is as above. In outline:
as §2

Test [16] relates to HS-PSS. The test is described as follows: % inhibition of CellTiter-Glo viability at highest tested concentration (72 h), relative to DMSO and benzethonium chloride controls; higher = more inhibition. The method in brief: as §1
Test [17] deals with HS-Sch-2. The test is described as above. In outline:
as §1

Test [18] has as its system HSC1 (primary human Schwann cells). Described as above. In outline: as §1
Test [19] deals with HSC2 (primary human Schwann cells). Described as above. In outline: as §1
In test [20] the test system is S1507-2. The test is described as above. The method in brief: as §1
In test [21] the test system is S462. The test is described as above. The method in brief: as §1
For test [22], the system named is ST8814. The test is described as above. In outline:
as §1

Test [23] concerns STS26T. The test is described as above. The method in brief:
as §1

Test [24] has as its system YST-1. Described as above. In outline:
as §1

Here are results for six compounds from the supplement of paper PMC5579334.

± gives the standard deviation of the averaged measurements.

Take `CC(C)N(CCCNC(=O)Nc1ccc(C(C)(C)C)cc1)C[C@H]1O[C@@H](n2cc(Br)c3c(N)ncnc32)[C@H](O)[C@@H]1O` [SGC0946] (max concentration tested 10000 nM): the drug sensitivity score was 6.51 with HS-PSS [1]; 3.88 with HS-Sch-2 [2]; 0.65 in test [3]; 0.163 in test [4]; 3.16 ± 1.4 in the test on S1507-2 [5]; 0.582 ± 0.82 with S462 [6]. The drug sensitivity score in the test with ST8814 [7] worked out at 2.58; in the test on STS26T [8], 0; with YST-1 [9] it was 1.03; in the test on HS-PSS [10], 2.32; in test [11] it was 0; in test [12], 0. Moreover, the values for the drug sensitivity score with S1507-2 [13], in the test on ST8814 [14] and in the test on STS26T [15] were 0.24 ± 0.046, 3.21 and 0, respectively. Also, the “% inhibition” value was 79.5% in the test on HS-PSS [16]; 67.2% with HS-Sch-2 [17]; 23.1% in [18]; 16.3% in [19]; 42.7 ± 1.2% in the test with S1507-2 [20]; 19.2 ± 8.9% in the test on S462 [21]. Besides, the entries for the “% inhibition” value with ST8814 [22], with STS26T [23] and with YST-1 [24] were 52.9%, 4.04% and 29%, respectively.
As for `C[C@]12C=CC(=O)C=C1CC[C@@H]1[C@@H]2C(=O)C[C@@]2(C)[C@H]1CC[C@]2(O)C(=O)CO` [Prednisone] (max concentration tested 10000 nM), the drug sensitivity score is 0 in the test on HS-PSS [1]; 0.07 in the test on HS-Sch-2 [2]; 0 in [3]; 0 in [4]; 0 in the test on S1507-2 [5]; 0 in the test with S462 [6]. The drug sensitivity score (with ST8814 [7]; in the test on STS26T [8]; with YST-1 [9]; with HS-PSS [10]; in test [11]; in test [12]) was 0 in each case. In addition, the drug sensitivity score with S1507-2 [13], in the test on ST8814 [14] and in the test with STS26T [15] was 0 each time. Moreover, the “% inhibition” value in the test with HS-PSS [16] is 3.03%; with HS-Sch-2 [17], 12.9%; in test [18], -0.144%; in test [19] it was 2.63%; in the test with S1507-2 [20], 0.647 ± 14%; in the test with S462 [21], -0.361 ± 2%. For the same compound, the “% inhibition” value in the test on ST8814 [22] was -2.07%; in the test on STS26T [23], 4.83%; in the test with YST-1 [24], -5.67%.
For `Cc1cn(-c2cc(NC(=O)c3ccc(C)c(Nc4nccc(-c5cccnc5)n4)c3)cc(C(F)(F)F)c2)cn1` [Nilotinib] (max concentration tested 10000 nM), the drug sensitivity score came to 1.65 with HS-PSS [1]; 3.88 in the test with HS-Sch-2 [2]; 0 in test [3]; 0 in test [4]; 0 with S1507-2 [5]; 0 in the test with S462 [6]. Besides, the drug sensitivity score stood at 0 with ST8814 [7]; 0 in the test on STS26T [8]; 1.13 with YST-1 [9]; 0 in the test with HS-PSS [10]; 0 in test [11]; 0.117 in test [12]. Further, the drug sensitivity score in the test with S1507-2 [13], with ST8814 [14] and in the test with STS26T [15] was 0 throughout. The “% inhibition” value in the test with HS-PSS [16] was 23.5%; in the test on HS-Sch-2 [17] it was 15.4%; in test [18], 0.687%; in test [19], 2.6%; with S1507-2 [20], 2.99 ± 0.13%; in the test with S462 [21], -3.63 ± 4.4%. The entries for the “% inhibition” value in the test with ST8814 [22], in the test on STS26T [23] and in the test with YST-1 [24] were -12.2%, -1.55% and 20.6%, respectively.
Take `Cn1c(=O)c(F)c(Nc2ccc(I)cc2F)c2c(=O)n(C[C@@H](O)CO)cnc21` [TAK-733] (max concentration tested 1000 nM): the drug sensitivity score stood at 4.36 in the test on HS-PSS [1]; 5.75 with HS-Sch-2 [2]; 6.66 in [3]; 6.21 in [4]; 7.362 ± 0.071 in the test on S1507-2 [5]; 10.3 ± 0.6 with S462 [6]. Besides, the drug sensitivity score turned out to be 9.73 with ST8814 [7]; 6.24 with STS26T [8]; 0.48 with YST-1 [9]; 0 in the test on HS-PSS [10]; 0 in test [11]; 0 in test [12]. In addition, the results for the drug sensitivity score in the test with S1507-2 [13], in the test with ST8814 [14] and in the test with STS26T [15] were 2.13 ± 3, 5.1 and 0.198, respectively. The “% inhibition” value in the test on HS-PSS [16] worked out at 48.9%; with HS-Sch-2 [17], 63%; in test [18] it was 60.4%; in test [19], 56.7%; in the test with S1507-2 [20], 64.6 ± 1.8%; in the test on S462 [21], 76.5 ± 2.8%. Further, the “% inhibition” value in the test on ST8814 [22] was determined as 83.7%; in the test with STS26T [23], 40.6%; with YST-1 [24], 14.2%.
On to `COc1ccc(-c2ccc3c(N4CCOC[C@@H]4C)nc(N4CCOC[C@@H]4C)nc3n2)cc1CO` [AZD8055] (max concentration tested 10000 nM), for which the drug sensitivity score in the test on HS-PSS [1] was determined as 17; with HS-Sch-2 [2], 17.9; in test [3] it was 26.2; in test [4], 27.2; in the test with S1507-2 [5], 22.5 ± 1.3; with S462 [6], 22.3 ± 1.8. Besides, the drug sensitivity score with ST8814 [7] is 18; in the test on STS26T [8] it was 21; in the test with YST-1 [9], 25.1; in the test with HS-PSS [10] it was 0.77; in test [11], 0; in test [12] it was 0. For the same compound, the drug sensitivity score in the test on S1507-2 [13] was determined as 0; in the test on ST8814 [14], 0.371; with STS26T [15] it was 0. The “% inhibition” value came to 70.7% with HS-PSS [16]; 75.8% with HS-Sch-2 [17]; 89.3% in [18]; 89.9% in test [19]; 85.4 ± 0.61% with S1507-2 [20]; 74.8 ± 1.4% with S462 [21]. Also, the “% inhibition” value in the test with ST8814 [22] came out at 84.1%; in the test with STS26T [23], 82%; in the test on YST-1 [24], 78.6%.
For `CN[C@@H](C)C(=O)N[C@H]1CN(C(=O)CC(C)C)CC[C@H]2CC[C@@H](C(=O)NC(c3ccccc3)c3ccccc3)N2C1=O` [AT-406] (max concentration tested 10000 nM), the drug sensitivity score in the test on HS-PSS [1] came to 0.14; in the test on HS-Sch-2 [2] it was 0; in test [3], 0; in test [4], 0; in the test on S1507-2 [5], 0.378 ± 0.28; in the test on S462 [6], 0. In addition, the drug sensitivity score in the test with ST8814 [7] amounted to 0; with STS26T [8], 12.4; in the test on YST-1 [9], 0; with HS-PSS [10], 0; in test [11], 0; in test [12], 0. The drug sensitivity score worked out at 13.1 ± 11 in the test with S1507-2 [13], 0 in the test with ST8814 [14] and 22.4 in the test on STS26T [15]. For the same compound, the “% inhibition” value in the test on HS-PSS [16] was 14.3%; with HS-Sch-2 [17] it was 10.6%; in [18], -7.18%; in [19], -4.84%; in the test with S1507-2 [20], 14.97 ± 0.11%; with S462 [21], 3.84 ± 5.2%. Besides, the “% inhibition” value came out at 3.57% in the test on ST8814 [22], 56% in the test on STS26T [23] and 8.35% in the test with YST-1 [24].
